Measurements: patent US10336733B2, “Aryl acylsulfonamides as BLT1 antagonists” (Merck Sharp & Dohme Corp., priority 2015, dated 2019)

target: human BLT1 receptor (Homo sapiens (Human), UniProt Q15722); test: BLT-1 cAMP Assay; type: cell-based; conditions: antagonist mode; HEK293 cells recombinantly expressing human BLT1 receptor; forskolin 4 μM and LTB4 2 nM; cAMP detection
Description: The ability of compounds to antagonize the human BLT1 receptor was determined using a kit to measure changes in intracellular cyclic AMP levels (cAMP dynamic assay kit, Cisbio Cat. No. 62AM4PEC). HEK293 cells recombinantly expressing human BLT1 receptor, previously frozen in Recovery Medium (Life Technologies, Cat. No. 12648-010) were thawed and diluted into assay medium (HBSS (Hyclone SH 30268.01), 20 mM HEPES (Gibco 15630-106), 800 μM IBMX (Sigma I5879), 0.1% DTPA BSA (Perkin Elmer CR84-100)). The cell suspension was centrifuged at 200×g for 10 min and then resuspended in fresh assay medium to a density of 2.5×10^5 cells/mL. A Labcyte Echo 550 acoustic dispenser was used to transfer 25 nL of test compound dissolved in DMSO into the wells of a dry 384-well plate (Greiner 784075). All subsequent liquid additions were performed using a BIORAPTR (FRD; Beckman Coulter). Next, 5 μL of cell suspension was added and incubated for 20 min. at 37° C. and 5% CO2 in a humidified plastic tray. To test for agonist activity […] of assay buffer containing forskolin (Sigma F-6886. 4 μM for BLT1) was added and incubated for 30 minutes at 37° C. and 5% CO2 in a humidified plastic tray. To test for antagonist activity 5 μL of assay buffer containing forskolin (Sigma F-6886. 4 μM for BLT1) and either LTB4 (Sigma Aldrich L0517; 2 nM BLT1) was added and incubated for 30 minutes at 37° C. and 5% CO2 in a humidified plastic tray.
The levels of cAMP were detected using the CisBio kit following the manufacturer's instructions: cAMP-d2 vial was reconstituted with distilled water and then diluted accordingly with conjugate & lysis buffer. 5 μL of cAMP-d2 working solution was added to all of the wells of the assay plate. cAMP-Cryptate vial was reconstituted with distilled water and then diluted accordingly with conjugate & lysis buffer. 5 μL of cAMP-Cryptate working solution were added to the assay plate. The assay plate was shaken for 3 minutes and incubated at room temperature for 45 minutes, then read on Perkin Elmer Envision. cAMP standard curve and fit data were plotted using a 4 parameter dose response curve fitting algorithm to fit curve. A 4-parameter curve fit (Max, min, log EC50 and slope) was used to transform fluorescent 665 nm/615 nm ratio signal to cAMP concentration. After normalization to treated and untreated controls, the percent effect of signal at each compound concentration was calculated. The plot of percent effect versus the log of compound concentration was fit with a 4-parameter concentration response equation to calculate EC50 values. Compound concentrations tested were 10 000, 3 333, 1 111, 370.4, 123.4, 41.2, 13.7, 4.6, 1.5 and 0.5 nM with 0.25% residual DMSO.

Chain of human BLT1 receptor (Q15722 whole entry): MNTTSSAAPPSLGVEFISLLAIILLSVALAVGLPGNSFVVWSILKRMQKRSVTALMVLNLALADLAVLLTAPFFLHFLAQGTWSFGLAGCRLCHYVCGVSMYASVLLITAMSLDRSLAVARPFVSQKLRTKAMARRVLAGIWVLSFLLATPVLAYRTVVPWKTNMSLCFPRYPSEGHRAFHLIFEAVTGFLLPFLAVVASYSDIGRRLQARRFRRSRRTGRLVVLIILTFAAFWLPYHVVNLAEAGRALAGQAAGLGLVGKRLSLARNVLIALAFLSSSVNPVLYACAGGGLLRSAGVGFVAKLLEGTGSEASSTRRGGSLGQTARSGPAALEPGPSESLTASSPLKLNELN

EC50 [nM] | Structure (SMILES)
6 | O=C(NS(=O)(=O)C(F)(F)F)c1ccc(F)cc1-c1ccc2c(c1)OC[C@H](Cc1ccccn1)[C@H]2O (single isomer, unassigned) [Example 2, 4-Fluoro-2-((3S,4R or 3R,4S)-4-hydroxy-3-(pyridin-2-ylmethyl)chroman-7-yl)-N-((trifluoromethyl)sulfonyl)benzamide]
36 | CCn1nccc1C[C@H]1COc2cc(-c3ccccc3C(=O)NS(=O)(=O)C(C)(C)C)ccc2[C@@H]1O (single isomer, unassigned) [Example 37, N-(tert-Butylsulfonyl)-2-((3S,4R or 3R,4S)-3-((1-ethyl-1H-pyrazol-5-yl)methyl)-4-hydroxychroman-7-yl)benzamide]
4 | O=C(NS(=O)(=O)C1CC1)c1ccc(F)cc1-c1ccc2c(c1)OC[C@H](Cc1ccccn1)[C@H]2O (single isomer, unassigned) [Example 16, N-(Cyclopropylsulfonyl)-4-fluoro-2-((3S,4R or 3R,4S)-4-hydroxy-3-(pyridin-2-ylmethyl)chroman-7-yl)benzamide]
93 | CS(=O)(=O)NC(=O)c1ccc(F)cc1-c1ccc2c(c1)OC[C@H](Cc1ccccn1)[C@H]2O (single isomer, unassigned) [Example 4, 4-Fluoro-2-((3S,4R or 3R,4S)-4-hydroxy-3-(pyridin-2-ylmethyl)chroman-7-yl)-N-(methylsulfonyl)benzamide]
2 | CC(C)(C)S(=O)(=O)NC(=O)c1ccc(F)cc1-c1ccc2c(c1)OC[C@H](Cc1ccccn1)[C@H]2O (single isomer, unassigned) [Example 14, N-(tert-Butylsulfonyl)-4-fluoro-2-((3S,4R or 3R,4S)-4-hydroxy-3-(pyridin-2-ylmethyl)chroman-7-yl)benzamide]
48 | O=C(NS(=O)(=O)C1CCCC1)c1ccccc1-c1ccc2c(c1)OCC(Cc1ccccn1)C2O (stereo not drawn) [Example 19, N-(Cyclopentylsulfonyl)-2-((3,4-trans)-4-hydroxy-3-(pyridin-2-ylmethyl)chroman-7-yl)benzamide]
28 | O=C(NS(=O)(=O)C1CC1)c1ccccc1-c1ccc2c(c1)OC[C@H](Cc1ccccn1)[C@H]2O (single isomer, unassigned) [Example 6, N-(Cyclopropylsulfonyl)-2-((3S,4R or 3R,4S)-4-hydroxy-3-(pyridin-2-ylmethyl)chroman-7-yl)benzamide]
19 | CC1(S(=O)(=O)NC(=O)c2ccccc2-c2ccc3c(c2)OC[C@@H](Cc2coc(-c4ccccc4)n2)[C@@H]3O)CC1 (racemic) [Example 43, 2-(Rac-trans)-4-hydroxy-3-((2-phenyloxazol-4-yl)methy)chroman-7-yl)-N-((1-methylcyclopropyl)sulfonyl)benzamide]
740 | Cc1nnc(C[C@@H]2COc3cc(-c4ccccc4C(=O)NS(=O)(=O)C4(C)CC4)ccc3[C@H]2O)s1 (racemic) [Example 29, 2-((Rac-trans)-4-Hydroxy-3-((5-methyl-1,3,4-thiadiazol-2-yl)methyl)chroman-7-yl)-N-((1-methylcyclopropyl)sulfonyl)benzamide]
23 | O=C(NS(=O)(=O)CC1CC1)c1ccccc1-c1ccc2c(c1)OCC(Cc1ccccn1)C2O (stereo not drawn) [Example 18, N-((Cyclopropylmethyl)sulfonyl)-2-((3,4-trans)-4-hydroxy-3-(pyridin-2-ylmethyl)chroman-7-yl)benzamide]
37 | O=C(NS(=O)(=O)C(F)(F)F)c1ccc(F)cc1-c1ccc2c(c1)OC[C@H](Cc1ccc(-c3ccccc3)cc1)[C@@H]2O (racemic) [Example 39, 2-((Rac-cis)-3-([1,1′-Biphenyl]-4-ylmethyl)-4-hydroxychroman-7-yl)-4-fluoro-N-((trifluoromethyl)sulfonyl)benzamide]
5 | CC(C)(C)S(=O)(=O)NC(=O)c1ccccc1-c1ccc2c(c1)OC[C@H](Cc1coc(-c3ccccc3)n1)[C@H]2O (single isomer, unassigned) [Example 48, N-(tert-Butylsulfonyl)-2-((3S,4R or 3R,4S)-4-hydroxy-3-((2-phenyloxazol-4-yl)methyl)chroman-7-yl)benzamide]
17 | CC(C)(C)S(=O)(=O)NC(=O)c1ccccc1-c1ccc2c(c1)OC[C@H](Cc1ccccn1)[C@H]2O (single isomer, unassigned) [Example 12, N-(tert-Butylsulfonyl)-2-((3S,4R or 3R,4S)-4-hydroxy-3-(pyridin-2-ylmethyl)chroman-7-yl)benzamide]
808 | CC(C)(C)S(=O)(=O)NC(=O)c1ccccc1-c1ccc2c(c1)OC[C@@H](Cc1cscn1)[C@@H]2O (single isomer, unassigned) [Example 33, N-(tert-Butylsulfonyl)-2-((3R,4S or 3S,4R)-4-hydroxy-3-(thiazol-4-ylmethyl)chroman-7-yl)benzamide]
360 | Cn1nccc1C[C@@H]1COc2cc(-c3ccccc3C(=O)NS(=O)(=O)C3(C)CC3)ccc2[C@H]1O (racemic) [Example 28, 2-(Rac-trans)-4-Hydroxy-3-((1-methyl-1H-pyrazol-5-yl)methyl)chroman-7-yl)-N-((1-methylcyclopropyl)sulfonyl)benzamide]
556 | Cc1nnc(C[C@@H]2COc3cc(-c4ccccc4C(=O)NS(=O)(=O)C(C)(C)C)ccc3[C@H]2O)s1 (racemic) [Example 31, N-(tert-Butylsulfonyl)-2-((rac-trans)-4-hydroxy-3-((5-methyl-1,3,4-thiadiazol-2-yl)methyl)chroman-7-yl)benzamide]
15 | CC1(S(=O)(=O)NC(=O)c2ccccc2-c2ccc3c(c2)OC[C@H](Cc2ccccc2)[C@H]3O)CC1 (single isomer, unassigned) [Example 22, 2-((3S,4R or 3R,4S)-3-Benzyl-4-hydroxychroman-7-yl)-N-((1-methylcyclopropyl)sulfonyl)benzamide]
81 | CCn1nccc1C[C@@H]1COc2cc(-c3ccccc3C(=O)NS(=O)(=O)C(C)(C)C)ccc2[C@H]1O (racemic) [Example 36, N-(tert-Butylsulfonyl)-2-((rac-trans)-3-((1-ethyl-1H-pyrazol-5-yl)methyl)-4-hydroxychroman-7-yl)benzamide]
95 | Cn1nccc1C[C@@H]1COc2cc(-c3ccccc3C(=O)NS(=O)(=O)C(C)(C)C)ccc2[C@H]1O (racemic) [Example 35, N-(tert-Butylsulfonyl)-2-((rac-trans)-4-hydroxy-3-((1-methyl-1H-pyrazol-5-yl)methyl)chroman-7-yl)benzamide]
480 | O=C(NS(=O)(=O)C1CC1)c1ccc(F)cc1-c1ccc2c(c1)OC[C@@H](Cc1ccccn1)[C@@H]2O (single isomer, unassigned) [Example 15, N-(Cyclopropylsulfonyl)-4-fluoro-2-((3R,4S or 3S,4R)-4-hydroxy-3-(pyridin-2-ylmethyl)chroman-7-yl)benzamide]

Structure (SMILES) | EC50 [nM]
CC1(S(=O)(=O)NC(=O)c2ccccc2-c2ccc3c(c2)OC[C@H](Cc2coc(-c4ccccc4)n2)[C@H]3O)CC1 (single isomer, unassigned) [Example 45, 2-((3S,4R or 3R,4S)-4-hydroxy-3-((2-phenyloxazol-4-yl)methy)chroman-7-yl)-N-((1-methylcyclopropyl)sulfonyl)benzamide] | 3
C[C@H](c1ccccn1)C1COc2cc(-c3ccccc3C(=O)NS(=O)(=O)C3(C)CC3)ccc2C1O (stereo in doubt) [Example 50, 2-((3,4-trans)-4-Hydroxy-3-((S)-1-(pyridin-2-yl)ethyl)chroman-7-yl)-N-((1-methylcyclopropyl)sulfonyl)benzamide] | 67
C[C@@H](c1ccccn1)C1COc2cc(-c3ccccc3C(=O)NS(=O)(=O)C3(C)CC3)ccc2C1O (stereo in doubt) [Example 49, 2-((3,4-trans)-4-Hydroxy-3-((R)-1-(pyridin-2-yl)ethyl)chroman-7-yl)-N-((1-methylcyclopropyl)sulfonyl)benzamide] | 154
CC1(S(=O)(=O)NC(=O)c2ccccc2-c2ccc3c(c2)OC[C@@H](Cc2cscn2)[C@@H]3O)CC1 (single isomer, unassigned) [Example 26, 2-((3R, 4S or 3S, 4R)-4-Hydroxy-3-(thiazol-4-ylmethyl)chroman-7-yl)-N-((1-methylcyclopropyl)sulfonyl)benzamide] | 770
